Assay [1] has as its target T1, LC3A (Homo sapiens, UniProt Q9H492).
T1 construct: modified Ub-leader (ubiquitin fusion leader) (N); made in house; host or cells: E. coli NEB T7 Express
In words: ITC titration of PLEKHM1-LIR peptide into LC3A. The format is binding. The settings on record: 25°C, pH 7.0. The protocol:
(§1) The genes for the truncated LC3A^2–121, LC3C^8–125, GABARAP^2–117 and GABARAP‐L1^2–117 proteins were cloned into pET30ΔSE vector between the BamHI and XhoI sites using previously established protocols 38. The chimeric constructs of the PLEKHM1‐LIR attached to the LC3A, GABARAP and GABARAP‐L1 proteins were prepared by inserting the oligonucleotide sequence corresponding to the PLEKHM1‐LIR peptide (P^629[…]^638) and glycine–serine linker into the BamHI site of the pET30ΔSE vector, placing the PLEKHM1‐LIR at the N‐terminal of the mature chimeric protein (similar to 31, 38). For the expression of human LC3 and GABARAP proteins for ITC and NMR experiments, plasmids with appropriate modified Ub‐leaders in pET vectors were used 39. Gene, encoding PLEKHM1‐LIR peptide, was ordered as synthetic oligonucleotides (Eurofins Genomics GmbH) and cloned into the pET39_Ub63_ vector 39 by NcoI–BamHI restriction sites. After TEV cleavage, the resulting peptide has the amino acid sequence GAMG‐P^629[…]^642, where the first four residues (GAMG) are the cloning artefact.
(§2) The chimeric constructs were expressed as a His‐tag fusion protein in E. coli BL21(DE3) cells. The cells were induced with 0.3 mM IPTG at OD600 0.6 for 16 h at 26°C. The cell pellets were lysed using mechanical sonication in lysis buffer (20 mM Tris–HCl pH 9.0, 100 mM NaCl, 10 mM imidazole, supplemented with 0.1% Triton X‐100). The proteins were purified using Ni‐NTA beads (GE Healthcare) and the His‐tag was cleaved using thrombin (Invitrogen) at room temperature for 16 h. The last step was gel filtration chromatography using a Superdex S200/300 GL column (GE Healthcare). The proteins were concentrated using spin concentrators (Vivaspin). For ITC and NMR studies, the non‐labelled and stable isotopes labelled LC3 and GABARAP proteins were obtained based on the protocols described elsewhere 30, 39. Here, E. coli NEB T7 Express culture transformed with corresponding plasmids were grown till OD600 nm = 1.0 and protein expression was induced with 0.2 mM IPTG. The cultures were incubated at 25°C for 8–12 h before cell harvesting. Isolation and purification procedures were similar to those reported in Ref. 22, 40. Before experiments, all proteins and peptides were equilibrated with a buffer containing 50 mM Na2HPO4, 100 mM NaCl at pH 7.0, and supplied with 5 mM protease inhibitor cocktail.
(§3) The protocol for preparation of non‐labelled and ^13C,^15N‐labelled PLEKHM1‐LIR peptide was slightly modified to achieve highest yield of the peptide. The 50 ml M9 culture was inoculated with NEB T7 cell transformed with pET39_Ub63‐PLEKHM1‐LIR plasmid and grown overnight at 37°. The collected cells were resuspended in 2 l of either LB or M9 media contained 1.5 g ^15N‐labelled NH4Cl and 3.0 g of ^13C‐labelled glucose. The cultures were grown at 37° till A(600 nm) = 0.9 and supplied with 1 mM of IPTG to induce Ub63‐PLEKHM1‐LIR overexpression (3 h at 37°). After that cells were harvested by centrifugation, re‐suspended in buffer contained 50 mM Tris–HCl pH = 7.9, 200 mM NaCl, 5% glycerol, 0.1 mg/ml DNase A and 4 mM protease inhibitor cocktail. After cell lysis by French press, debris was removed by centrifugation and clear supernatant was applied onto the column contained Ni‐NTA Sepharose equilibrated with the loading buffer (50 mM Tris–HCl pH = 7.9, 250 mM NaCl, 1% glycerol and 20 mM imidazole). Elution was performed with 400 mM imidazole in the same buffer. An aliquot of pure Ub63‐PLEKHM1‐LIR fractions was further purified by gel filtration on Superdex75 26 × 60 column for control ITC and analytical size exclusion chromatography experiments, remaining fusion protein was processed with the TEV‐protease and PLEKHM1‐LIR peptide was purified to 95% purity by reverse Ni‐NTA chromatography and followed gel filtration on Superdex75 26 × 60 column. Peak maximum of peptide was detected at […] (void volume 115 ml). Pure peptide was concentrated in Amicon concentrators with cut‐off of 3 kDa (> 95% retention). […]
In general terms: Isothermal titration calorimetry measures the heat released or taken up as one component is titrated into another.

Assay [2] deals with T2, GABARAP-L1 (Homo sapiens, UniProt Q9H0R8).
T2 construct: modified Ub-leader (ubiquitin fusion leader) (N); made in house; host or cells: E. coli NEB T7 Express
T2 sequence (Q9H0R8 whole entry, the tested form may be a part): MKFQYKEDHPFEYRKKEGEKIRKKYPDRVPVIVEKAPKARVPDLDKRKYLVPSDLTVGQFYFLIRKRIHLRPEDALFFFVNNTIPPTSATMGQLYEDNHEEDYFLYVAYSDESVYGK
In words: ITC titration of PLEKHM1-LIR peptide into GABARAP-L1. The format is binding. The settings on record: 25°C, pH 7.0. The protocol:
as §1, §2, §3

Assay [3] concerns LC3 subfamily proteins (LC3A, LC3B). In words: NMR titration of 15N-labelled LC3 proteins with PLEKHM1-LIR peptide. Type of assay: binding, human. Conditions: 298 K, 0.18 mM 15N-labelled protein, up to four times peptide excess. The protocol:
(§4) All NMR experiments were performed at 298 K on Bruker Avance spectrometers operating at proton frequencies of 500, 600 and 700 MHz. Titration experiments were performed with a 0.18 mM ^15N‐labelled LC3 and GABARAP protein samples to which the non‐labelled PLEKHM1‐LIR peptide was added stepwise until four times excess to LC3 proteins or two times excess to the GABARAP proteins. Backbone HN resonances for selected mATG8 proteins in complex with the PLEKHM1‐LIR peptide were assigned using [^15N‐^1H]‐TROSY versions of 3D HNCACB experiment. For assignment of PLEKHM1‐LIR peptide backbone HN resonances in complexes with the LC3 and GABARAP proteins, [^15N‐^1H]‐TROSY versions of 3D HNCACB experiment and hCcconh‐TOCSY experiment were used.

Assay [4] has as its system GABARAP subfamily proteins (GABARAP-L1, GABARAP-L2). Put plainly: NMR titration of 15N-labelled GABARAP proteins with PLEKHM1-LIR peptide. Type of assay: binding, human. The settings on record: 298 K, 0.18 mM 15N-labelled protein, up to two times peptide excess. The protocol:
as §4

Where [5] appears, read: VP-ITC, one-site model, 0.4 mM peptide into 0.020 mM protein, 50 mM Na2HPO4, 100 mM NaCl.

Ends that are not written are not given here.

Sequence GAMGPQQEDEWVNVQYPD [PLEKHM1‐LIR WT] displayed a ΔH in assay [1] (setting [5]) of -7 ± 0.2 kcal/mol. Besides, in assay [1], the KA is 0.24 ± 0.02 ×10^6 M^−1, the “N (number of binding sites)” value is 0.98 ± 0.02, the ΔG was -7.33 kcal/mol and the ΔS entry is “+1.17 cal mol^−1 K^−1”. Moreover, in assay [1], the “−T × ΔS” value is -0.35 kcal/mol. Further, the ΔH in assay [2] (setting [5]) was -7.8 ± 0.1 kcal/mol. For the same sequence, in assay [2], the KA is 1.3 ± 0.1 ×10^6 M^−1, the “N (number of binding sites)” value came out at 1.00 ± 0.01, the ΔG was -8.35 kcal/mol and the ΔS result is listed as “+1.94 cal mol^−1 K^−1”. Besides, the “−T × ΔS” value in assay [2] was -0.58 kcal/mol. Besides, the “exchange behaviour upon titration, LC3 subfamily” value in assay [3] is given as “intermediate exchange”. For the same sequence, the “exchange behaviour upon titration, GABARAP subfamily” value in assay [4] is recorded as “slow exchange”.

Source of the values: article PMC5538626, “Structural and functional analysis of the GABARAP interaction motif (GIM)” (EMBO Reports, 2017).
